Key:
Btk = target: T1, Btk (Homo sapiens, UniProt Q06187); assay: Btk kinase assay (ADP-Glo); format: biochemical; settings: ADP-Glo Btk kinase assay kit; ATP 1.2 μM; 60 minutes at room temperature
T1 construct: purchased Promega (Madison, Wis.)
In short: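 Luminescent ADP detection after a 60 min reaction at 22±1 °C containing Btk 2 ng/μl, 1.2 μM ATP, 0.3 μM poly GT peptide and 1.4 mM MnCl2. IC50 from log concentration versus percent inhibition relative to DMSO vehicle.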

TMD-8 cells = assay: Cell proliferation assay (CellTiter-Glo), TMD-8 cells; format: cell-based; settings: Homo sapiens, TMD8, 120 h, 5-day treatment, read-out: TMD8 cell growth (GI50 μM)
In short: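 TMD-8 cells seeded at 5,000–10,000/well, cultured overnight, then exposed to compound (vehicle 0.5% DMSO) for 5 days at 37 °C. Growth read by CellTiter-Glo luminescence; IC50 from log concentration versus % growth inhibition relative to vehicle.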

T1 sequence (Q06187 whole entry): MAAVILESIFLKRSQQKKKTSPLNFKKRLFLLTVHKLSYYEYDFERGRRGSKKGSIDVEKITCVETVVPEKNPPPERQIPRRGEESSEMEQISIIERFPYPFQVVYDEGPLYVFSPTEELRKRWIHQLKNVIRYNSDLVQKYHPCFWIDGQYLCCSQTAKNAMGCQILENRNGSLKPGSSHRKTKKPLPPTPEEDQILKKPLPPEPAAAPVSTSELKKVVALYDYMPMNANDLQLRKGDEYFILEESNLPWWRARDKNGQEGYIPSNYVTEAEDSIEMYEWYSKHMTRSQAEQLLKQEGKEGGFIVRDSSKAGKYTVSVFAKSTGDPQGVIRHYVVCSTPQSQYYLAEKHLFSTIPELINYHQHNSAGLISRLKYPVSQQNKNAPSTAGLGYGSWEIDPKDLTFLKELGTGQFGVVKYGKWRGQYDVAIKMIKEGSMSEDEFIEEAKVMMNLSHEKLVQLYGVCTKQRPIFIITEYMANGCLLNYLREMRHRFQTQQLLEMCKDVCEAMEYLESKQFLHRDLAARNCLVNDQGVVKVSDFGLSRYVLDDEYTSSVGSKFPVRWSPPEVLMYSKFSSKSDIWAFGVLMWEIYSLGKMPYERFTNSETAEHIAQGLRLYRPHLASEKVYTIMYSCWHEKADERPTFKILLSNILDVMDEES

SMILES	IC50 (Btk)	GI50 (TMD-8 cells)
C=CC(=O)N1CC[C@@H](Nc2ncnc3[nH]c(C#CCOc4cccc5sccc45)cc23)C1 [Example 89, (R)-1-(3-((6-(3-(benzo[b]thiophen-4-yloxy)prop-1-yn-1-yl)-7H-pyrrolo[2,3-d]pyrimidin-4-yl)amino)pyrrolidin-1-yl)prop-2-en-1-one]	148 nM	0.006 µM
O=C(/C=C/CN1CCCC1)N1CCC(Nc2ncnc3[nH]c(C#CCOc4ccccc4)nc23)C1 (stereo not drawn) [Example 12, (E)-1-(3-((8-(3-phenoxyprop-1-yn-1-yl)-9H-purin-6-yl)amino)pyrrolidin-1-yl)-4-(pyrrolidin-1-yl)but-2-en-1-one]	0.3 nM	1.3 µM
C=CC(=O)N1CC[C@@H](Nc2ncnc3[nH]c(C#CCOc4ccccc4F)nc23)C1 [Example 101, (R)-1-(3-((8-(3-(2-fluorophenoxy)prop-1-yn-1-yl)-9H-purin-6-yl)amino)pyrrolidin-1-yl)prop-2-en-1-one]	1 nM	0.003 µM
C=CC(=O)N1CC[C@@H](Nc2ncnc3[nH]c(C#Cc4cccc(OC)c4)cc23)C1 [Example 60, (R)-1-(3-((6-((3-methoxyphenyl)ethynyl)-7H-pyrrolo[2,3-d]pyrimidin-4-yl)amino)pyrrolidin-1-yl)prop-2-en-1-one]	11 nM	0.005 µM
C=CC(=O)N1CC[C@@H](Nc2ncnc3[nH]c(C#Cc4ccc5occc5c4)cc23)C1 [Example 74, (R)-1-(3-((6-(benzofuran-5-ylethynyl)-7H-pyrrolo[2,3-d]pyrimidin-4-yl)amino)pyrrolidin-1-yl)prop-2-en-1-one]	0.03 nM	0.0012 µM
C=CC(=O)N1CC[C@@H](Nc2ncnc3[nH]c(C#Cc4ccc(OC)cc4)cc23)C1 [Example 53, (R)-1-(3-((6-((4-methoxyphenyl)ethynyl)-7H-pyrrolo[2,3-d]pyrimidin-4-yl)amino)pyrrolidin-1-yl)prop-2-en-1-one]	23 nM	0.006 µM
C=CC(=O)N1CCN(c2ncnc3[nH]c(C#CCOC)cc23)CC1 [Example 5, 1-(4-(6-(3-methoxyprop-1-yn-1-yl)-7H-pyrrolo[2,3-d]pyrimidin-4-yl)piperazin-1-yl)prop-2-en-1-one]	257 nM	1.66 µM
C=CC(=O)N1CC[C@@H](Nc2ncnc3[nH]c(C#Cc4ccc5ccccc5c4)cc23)C1 [Example 71, (R)-1-(3-((6-(naphthalen-2-ylethynyl)-7H-pyrrolo[2,3-d]pyrimidin-4-yl)amino)pyrrolidin-1-yl)prop-2-en-1-one]	10 nM	0.001 µM
C=CC(=O)N1CC[C@@H](Nc2ncnc3[nH]c(C#Cc4ccc(OC(F)(F)F)cc4)cc23)C1 [Example 66, (R)-1-(3-((6-((4-trifluoromethoxyphenyl)ethynyl)-7H-pyrrolo[2,3-d]pyrimidin-4-yl)amino)pyrrolidin-1-yl)prop-2-en-1-one]	215 nM	0.0012 µM
C=CC(=O)N1CC[C@@H](Nc2ncnc3[nH]c(C#CCOc4ccccc4C#N)cc23)C1 [Example 82, (R)-1-(3-((6-(3-(2-cyanophenoxy)prop-1-yn-1-yl)-7H-pyrrolo[2,3-d]pyrimidin-4-yl)amino)pyrrolidin-1-yl)prop-2-en-1-one]	38 nM	0.0045 µM
C=CC(=O)Nc1cccc(Nc2ncnc3[nH]c(C#Cc4ccsc4)cc23)c1 [Example 104, N-(3-((6-(thiophen-3-ylethynyl)-7H-pyrrolo[2,3-d]pyrimidin-4-yl)amino)phenyl)acrylamide]	6 nM	0.017 µM
CN(C)C/C=C/C(=O)N1CCC(Nc2ncnc3[nH]c(C#CCOc4ccccc4)cc23)C1 (stereo not drawn) [Example 34, (E)-4-(dimethylamino)-1-(3-((6-(3-phenoxyprop-1-yn-1-yl)-7H-pyrrolo[2,3-d]pyrimidin-4-yl)amino)pyrrolidin-1-yl)but-2-en-1-one]	0.3 nM	0.107 µM
C=CC(=O)N1CC[C@@H](Nc2ncnc3[nH]c(C#CCOc4cccc5c4OCO5)cc23)C1 [Example 83, (R)-1-(3-((6-(3-(benzo[d][1,3]dioxol-4-yloxy)prop-1-yn-1-yl)-7H-pyrrolo[2,3-d]pyrimidin-4-yl)amino)pyrrolidin-1-yl)prop-2-en-1-one]	8 nM	0.0017 µM
C=CC(=O)N1CCN(c2ncnc3[nH]c(C#CCOc4ccccc4)nc23)CC1 [Example 6, 1-(4-(8-(3-phenoxyprop-1-yn-1-yl)-9H-purin-6-yl)piperazin-1-yl)prop-2-en-1-one]	16.4 nM	0.019 µM
C=CC(=O)N1CC[C@@H](Nc2ncnc3[nH]c(C#Cc4cccc(F)c4)cc23)C1 [Example 61, (R)-1-(3-((6-((3-fluorophenyl)ethynyl)-7H-pyrrolo[2,3-d]pyrimidin-4-yl)amino)pyrrolidin-1-yl)prop-2-en-1-one]	121 nM	0.022 µM
C=CC(=O)N1CCN(c2ncnc3[nH]c(C#CCOc4ccccc4)cc23)CC1 [Example 1, 1-(4-(6-(3-phenoxyprop-1-yn-1-yl)-7H-pyrrolo[2,3-d]pyrimidin-4-yl)piperazin-1-yl)prop-2-en-1-one]	109 nM	0.054 µM
C=CC(=O)N1CC[C@@H](Nc2ncnc3[nH]c(C#CCOc4cccc(F)c4Cl)nc23)C1 [Example 100, (R)-1-(3-((8-(3-(2-chloro-3-fluorophenoxy)prop-1-yn-1-yl)-9H-purin-6-yl)amino)pyrrolidin-1-yl)prop-2-en-1-one]	32 nM	0.006 µM
C=CC(=O)N1CCC(Nc2ncnc3[nH]c(C#CCOc4ccc(OC)cc4)nc23)C1 (stereo not drawn) [Example 27, 1-(3-((8-(3-(4-methoxyphenoxy)prop-1-yn-1-yl)-9H-purin-6-yl)amino)pyrrolidin-1-yl)prop-2-en-1-one]	16 nM	0.094 µM
C=CC(=O)N1CC[C@@H](Nc2ncnc3[nH]c(C#Cc4ccc(C(F)(F)F)cc4)cc23)C1 [Example 67, (R)-1-(3-((6-((4-trifluoromethylphenyl)ethynyl)-7H-pyrrolo[2,3-d]pyrimidin-4-yl)amino)pyrrolidin-1-yl)prop-2-en-1-one]	272 nM	0.004 µM
C=CC(=O)N1CCC(Nc2ncnc3[nH]c(C#CCOc4cc(F)cc(F)c4)nc23)C1 (stereo not drawn) [Example 17, 1-(3-((8-(3-(3,5-difluorophenoxy)prop-1-yn-1-yl)-9H-purin-6-yl)amino)pyrrolidin-1-yl)prop-2-en-1-one]	212 nM	0.25 µM
C=CC(=O)N1CC[C@@H](Nc2ncnc3[nH]c(C#Cc4ccoc4)cc23)C1 [Example 79, (R)-1-(3-((6-(furan-3-ylethynyl)-7H-pyrrolo[2,3-d]pyrimidin-4-yl)amino)pyrrolidin-1-yl)prop-2-en-1-one]	2 nM	0.031 µM
C=CC(=O)N1CC[C@@H](Nc2ncnc3[nH]c(C#Cc4ccc5c(c4)OCO5)cc23)C1 [Example 72, (R)-1-(3-((6-(benzo[d][1,3]dioxol-5-ylethynyl)-7H-pyrrolo[2,3-d]pyrimidin-4-yl)amino)pyrrolidin-1-yl)prop-2-en-1-one]	3.5 nM	0.0007 µM
C=CC(=O)N1CCC(Nc2ncnc3[nH]c(C#CCOc4ccc(F)cc4F)nc23)C1 (stereo not drawn) [Example 24, 1-(3-((8-(3-(2,4-difluorophenoxy)prop-1-yn-1-yl)-9H-purin-6-yl)amino)pyrrolidin-1-yl)prop-2-en-1-one]	1 nM	0.01 µM
C=CC(=O)N1CC[C@@H](Nc2ncnc3[nH]c(C#CC4CCCCC4)cc23)C1 [Example 78, (R)-1-(3-((6-(cyclohexylethynyl)-7H-pyrrolo[2,3-d]pyrimidin-4-yl)amino)pyrrolidin-1-yl)prop-2-en-1-one]	702 nM	2.68 µM
C=CC(=O)N1CC[C@@H](Nc2ncnc3[nH]c(C#CCOc4ccccc4)nc23)C1 [Example 31, (R)-1-(3-((8-(3-phenoxyprop-1-yn-1-yl)-9H-purin-6-yl)amino)pyrrolidin-1-yl)prop-2-en-1-one]	1.6 nM	0.02 µM
COc1cccc(OCC#Cc2nc3c(NC4CCN(C(=O)/C=C/CN(C)C)C4)ncnc3[nH]2)c1 (stereo not drawn) [Example 29, (E)-1-(3-((8-(3-(3-methoxyphenoxy)prop-1-yn-1-yl)-9H-purin-6-yl)amino)pyrrolidin-1-yl)-4-(dimethylamino)but-2-en-1-one]	0.7 nM	1.21 µM
CN(C)C/C=C/C(=O)N1CCN(c2ncnc3[nH]c(C#CCOc4ccccc4)nc23)CC1 [Example 7, (E)-4-(dimethylamino)-1-(4-(8-(3-phenoxyprop-1-yn-1-yl)-9H-purin-6-yl)piperazin-1-yl)but-2-en-1-one]	3 nM	0.141 µM

— patent publication US10144737B2 (ETERNITY BIOSCIENCE INC., priority 2014, dated 2018)
